From patent publication US6504058B1 (priority 1997, dated 2003)

What was measured:
[1] = tested on: Erysiphe graminis f. sp. tritici; assay: Test A: wheat powdery mildew, preventive spray on wheat seedlings, disease rating; type: in vivo, Erysiphe graminis f. sp. tritici (on wheat seedlings); details: 200 ppm test suspension sprayed to run-off (equivalent to 500 g/ha) on wheat seedlings; 100 = 100% disease control, 0 = no control; # = significant activity
Summary of the method: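 Compounds at 200 ppm (acetone 3%, 250 ppm Trem 014 in water; equivalent to 500 g/ha) sprayed to run-off on wheat seedlings, inoculated with spore dust the following day. Plants held at 20° C. for 7 days, then rated 0–100% disease control relative to untreated controls.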

[2] = tested on: Puccinia recondita; assay: Test B: wheat leaf rust, preventive spray on wheat seedlings, disease rating; type: in vivo, Puccinia recondita (on wheat seedlings); details: 200 ppm test suspension sprayed to run-off (equivalent to 500 g/ha) on wheat seedlings; 100 = 100% disease control, 0 = no control; # = significant activity
Summary of the method: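 Wheat seedlings were sprayed to run-off with 200 ppm suspensions (≈500 g/ha; 3% acetone, 250 ppm Trem 014) and inoculated with Puccinia recondita spores the next day. Plants were held 24 h saturated at 20 °C, then 6 days at 20 °C. Disease control was rated 0-100 relative to untreated controls.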

[3] = tested on: Pyricularia oryzae; type: in vivo, Pyricularia oryzae (on rice seedlings); details: 200 ppm test suspension sprayed to run-off (equivalent to 500 g/ha) on rice seedlings; 100 = 100% disease control, 0 = no control; # = significant activity
[4] = tested on: Phytophthora infestans; type: in vivo, Phytophthora infestans (on tomato seedlings); details: 200 ppm test suspension sprayed to run-off (equivalent to 500 g/ha) on tomato seedlings; 100 = 100% disease control, 0 = no control; # = significant activity
[5] = tested on: Botrytis cinerea; assay: Test E: gray mold, preventive spray on cucumber seedlings, disease rating; type: in vivo, Botrytis cinerea (on cucumber seedlings); details: 200 ppm test suspension sprayed to run-off (equivalent to 500 g/ha) on cucumber seedlings; 100 = 100% disease control, 0 = no control; # = significant activity
Summary of the method: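 Cucumber seedlings sprayed to run-off with 200 ppm suspension (equivalent to 500 g/ha), inoculated next day with B. cinerea spores. Kept 48 h saturated at 20 °C, then 5 days in growth chamber at 20 °C; disease control rated 0–100 relative to controls.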

Row | SMILES | Test A disease control rating (wheat powdery mildew) [1] | Test B disease control rating (wheat leaf rust) [2] | Test C disease control rating (rice blast) [3] | Test D disease control rating (potato and tomato late blight) [4] | Test E disease control rating (gray mold) [5]
1 | CC(NC(=O)C1(Cl)CC(Cl)(Cl)C1)c1ccc(Br)cc1 (centres unmarked) [compound 12] | 99% | 0 (a rating of 0 indicates no disease control (relative to the controls)) | 100# (a rating of 100 indicates 100% disease control) | 11% | 0 (a rating of 0 indicates no disease control (relative to the controls))
2 | CC(COc1ccc(F)cc1C#N)NC(=O)C1(C)CC(C)(Cl)C1 (centres unmarked) [compound 39] | 0 (a rating of 0 indicates no disease control (relative to the controls)) | 25% | 97# % | 45% | 47%
3 | CC(COc1ccc(Br)cc1C#N)NC(=O)C1(C)CC(C)(Cl)C1 (centres unmarked) [compound 38] | 0 (a rating of 0 indicates no disease control (relative to the controls)) | 66# % | 0 (a rating of 0 indicates no disease control (relative to the controls)) | 23% | 8%
4 | CC(COc1cc(Cl)ccc1C#N)NC(=O)C1(C)CC(C)(Cl)C1 (centres unmarked) [compound 46] | 63% | 28% | 91# % | 43% | 0 (a rating of 0 indicates no disease control (relative to the controls))
5 | CC(NC(=O)C1(C)CC(C)(Cl)C1)c1ccc(Br)cc1 (centres unmarked) [compound 14] | 0 (a rating of 0 indicates no disease control (relative to the controls)) | 0 (a rating of 0 indicates no disease control (relative to the controls)) | 97# % | 0 (a rating of 0 indicates no disease control (relative to the controls)) | 0 (a rating of 0 indicates no disease control (relative to the controls))
6 | CC(COc1ccc(F)cc1C#N)NC(=O)C1(C)CC(C)(Cl)C1 (centres unmarked) [compound 40] | 0 (a rating of 0 indicates no disease control (relative to the controls)) | 0 (a rating of 0 indicates no disease control (relative to the controls)) | 0 (a rating of 0 indicates no disease control (relative to the controls)) | 62% | 0 (a rating of 0 indicates no disease control (relative to the controls))
7 | CC(COc1cc(F)ccc1F)NC(=O)C1(C(F)(F)F)CC(C)(Cl)C1 (centres unmarked) [compound 27] | 72% | 0 (a rating of 0 indicates no disease control (relative to the controls)) | 99# % | 14% | 0 (a rating of 0 indicates no disease control (relative to the controls))
8 | CC(COc1cc(F)ccc1Cl)NC(=O)C1(C)CC(C)(Cl)C1 (centres unmarked) [compound 50] | 54% | 0 (a rating of 0 indicates no disease control (relative to the controls)) | 94# % | 0 (a rating of 0 indicates no disease control (relative to the controls)) | 0 (a rating of 0 indicates no disease control (relative to the controls))
9 | CC(COc1cc(F)ccc1F)NC(=O)C1(C)CC(C)(Br)C1 (centres unmarked) [compound 57] | 90# % | 0 (a rating of 0 indicates no disease control (relative to the controls)) | 86# % | 0 (a rating of 0 indicates no disease control (relative to the controls)) | 0 (a rating of 0 indicates no disease control (relative to the controls))
10 | CC(NC(=O)C1(C)CC(Cl)(CCl)C1)c1ccc(Br)cc1 (centres unmarked) [compound 61] | 0 (a rating of 0 indicates no disease control (relative to the controls)) | 0 (a rating of 0 indicates no disease control (relative to the controls)) | 100# (a rating of 100 indicates 100% disease control) | 96# % | 0 (a rating of 0 indicates no disease control (relative to the controls))
11 | CC(COc1cc(F)ccc1F)NC(=O)C1(C)CC(C)(Cl)C1 (centres unmarked) [Compound 30] | 0 (a rating of 0 indicates no disease control (relative to the controls)) | 0 (a rating of 0 indicates no disease control (relative to the controls)) | 100# (a rating of 100 indicates 100% disease control) | 0 (a rating of 0 indicates no disease control (relative to the controls)) | 94# %
12 | CC(NC(=O)C1CC(C)(Cl)C1)c1ccc(Br)cc1 (centres unmarked) [compound 11] | 57% | 0 (a rating of 0 indicates no disease control (relative to the controls)) | 53% | 60% | 0 (a rating of 0 indicates no disease control (relative to the controls))
13 | CC(NC(=O)C1(C)CC(C)(Cl)C1)c1ccc(Cl)cc1Cl (centres unmarked) [compound 71] | 61% | 0 (a rating of 0 indicates no disease control (relative to the controls)) | 100# (a rating of 100 indicates 100% disease control) | 100# (a rating of 100 indicates 100% disease control) | 0 (a rating of 0 indicates no disease control (relative to the controls))
14 | CC(COc1ccc(Br)cc1C#N)NC(=O)C1(C)CC(C)(Cl)C1 (centres unmarked) [compound 37] | 0 (a rating of 0 indicates no disease control (relative to the controls)) | 25% | 0 (a rating of 0 indicates no disease control (relative to the controls)) | 23% | 8%
15 | CC(NC(=O)C1(C)CC(C)(Br)C1)c1ccc(Br)cc1 (centres unmarked) [compound 17] | 0 (a rating of 0 indicates no disease control (relative to the controls)) | 0 (a rating of 0 indicates no disease control (relative to the controls)) | 74% | 0 (a rating of 0 indicates no disease control (relative to the controls)) | 0 (a rating of 0 indicates no disease control (relative to the controls))
16 | CC(NC(=O)C1(C)CC(Cl)(CCl)C1)c1ccc2ccccc2c1 (centres unmarked) [compound 64] | 0 (a rating of 0 indicates no disease control (relative to the controls)) | 0 (a rating of 0 indicates no disease control (relative to the controls)) | 53% | 91# % | 0 (a rating of 0 indicates no disease control (relative to the controls))
